Measured values as given in patent publication US8129417B2, “Substituted octahydrocyclopenta[C]pyrrol-4-amines as calcium channel blockers” (Abbott Laboratories, priority 2008, dated 2012).

Biological target: human Cav2.2 (Homo sapiens, UniProt Q00975)
Assay: Assessment of calcium channel activity using FLIPR (Ca2+ influx in IMR32 cells)
Assay type: cell-based
Details: 60 minute pre-incubation with compound, 2 μM nifedipine, depolarized with 80 mM KCl
Summary of the method: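 IMR32 neuroblastoma cells seeded at 1-1.2×10^5 cells/well and grown 48 h at 37 °C before FLIPR Ca2+ influx read. Percent inhibition at each concentration vs no-inhibitor activity; IC50 by non-linear sigmoidal dose-response fit.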

human Cav2.2, sequence (Q00975 whole entry): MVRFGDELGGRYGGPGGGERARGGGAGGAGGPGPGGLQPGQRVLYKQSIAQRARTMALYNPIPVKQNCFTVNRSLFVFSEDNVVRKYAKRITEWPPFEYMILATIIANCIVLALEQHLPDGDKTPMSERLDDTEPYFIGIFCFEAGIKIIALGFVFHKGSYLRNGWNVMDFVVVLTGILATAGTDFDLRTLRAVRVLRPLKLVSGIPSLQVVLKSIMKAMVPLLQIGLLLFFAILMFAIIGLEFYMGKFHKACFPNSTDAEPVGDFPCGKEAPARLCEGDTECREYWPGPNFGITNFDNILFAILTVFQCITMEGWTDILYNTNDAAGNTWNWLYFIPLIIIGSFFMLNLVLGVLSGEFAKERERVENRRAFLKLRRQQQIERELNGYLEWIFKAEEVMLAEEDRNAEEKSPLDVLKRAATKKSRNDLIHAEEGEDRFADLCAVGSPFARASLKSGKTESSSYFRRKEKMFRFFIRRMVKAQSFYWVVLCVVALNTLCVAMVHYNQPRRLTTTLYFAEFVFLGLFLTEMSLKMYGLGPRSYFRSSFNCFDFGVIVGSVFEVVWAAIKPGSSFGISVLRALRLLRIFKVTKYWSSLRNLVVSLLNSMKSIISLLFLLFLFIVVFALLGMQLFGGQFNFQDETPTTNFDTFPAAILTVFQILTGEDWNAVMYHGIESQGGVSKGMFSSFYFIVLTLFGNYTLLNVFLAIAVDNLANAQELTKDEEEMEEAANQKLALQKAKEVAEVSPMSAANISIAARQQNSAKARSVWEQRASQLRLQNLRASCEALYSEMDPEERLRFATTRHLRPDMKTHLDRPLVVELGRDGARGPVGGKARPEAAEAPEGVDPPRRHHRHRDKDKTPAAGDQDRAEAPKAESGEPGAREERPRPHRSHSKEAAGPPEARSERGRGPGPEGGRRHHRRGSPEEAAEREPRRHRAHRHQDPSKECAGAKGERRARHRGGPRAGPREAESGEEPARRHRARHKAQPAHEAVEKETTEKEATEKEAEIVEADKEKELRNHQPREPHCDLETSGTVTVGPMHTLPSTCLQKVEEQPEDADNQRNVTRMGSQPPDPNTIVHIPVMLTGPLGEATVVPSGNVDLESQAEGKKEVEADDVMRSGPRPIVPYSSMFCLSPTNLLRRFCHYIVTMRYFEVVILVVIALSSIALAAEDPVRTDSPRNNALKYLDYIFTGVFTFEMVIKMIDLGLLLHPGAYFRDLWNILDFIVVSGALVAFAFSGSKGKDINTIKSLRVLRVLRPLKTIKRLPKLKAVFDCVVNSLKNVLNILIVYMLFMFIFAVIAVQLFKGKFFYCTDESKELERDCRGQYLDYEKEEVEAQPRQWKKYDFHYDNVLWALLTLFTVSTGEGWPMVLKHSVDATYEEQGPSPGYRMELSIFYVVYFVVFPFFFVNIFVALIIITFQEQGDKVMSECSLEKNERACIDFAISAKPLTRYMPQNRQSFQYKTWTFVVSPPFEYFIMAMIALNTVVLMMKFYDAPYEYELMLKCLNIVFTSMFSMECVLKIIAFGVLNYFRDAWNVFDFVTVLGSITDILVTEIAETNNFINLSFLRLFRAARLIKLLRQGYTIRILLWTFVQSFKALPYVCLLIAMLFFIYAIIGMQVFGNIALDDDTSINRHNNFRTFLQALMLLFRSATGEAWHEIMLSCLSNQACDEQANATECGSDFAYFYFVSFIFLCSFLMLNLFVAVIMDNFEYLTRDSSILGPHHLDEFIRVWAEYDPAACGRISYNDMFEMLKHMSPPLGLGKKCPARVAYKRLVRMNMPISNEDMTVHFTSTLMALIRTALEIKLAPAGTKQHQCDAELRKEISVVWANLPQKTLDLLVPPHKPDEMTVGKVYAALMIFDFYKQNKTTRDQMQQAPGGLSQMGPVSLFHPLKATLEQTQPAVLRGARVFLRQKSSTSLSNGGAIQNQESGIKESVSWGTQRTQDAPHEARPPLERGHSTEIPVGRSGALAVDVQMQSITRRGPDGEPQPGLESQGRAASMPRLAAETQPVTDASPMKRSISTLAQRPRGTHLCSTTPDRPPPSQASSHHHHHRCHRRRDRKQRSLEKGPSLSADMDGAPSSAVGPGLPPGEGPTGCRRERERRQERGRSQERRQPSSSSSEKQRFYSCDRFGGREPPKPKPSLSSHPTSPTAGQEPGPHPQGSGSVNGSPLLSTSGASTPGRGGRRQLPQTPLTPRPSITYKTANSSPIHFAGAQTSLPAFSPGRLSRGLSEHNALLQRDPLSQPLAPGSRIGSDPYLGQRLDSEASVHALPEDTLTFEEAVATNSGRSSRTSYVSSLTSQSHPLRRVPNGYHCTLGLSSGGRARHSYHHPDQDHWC
human Cav2.2, sequence (P54289 25-946 partner limits assumed): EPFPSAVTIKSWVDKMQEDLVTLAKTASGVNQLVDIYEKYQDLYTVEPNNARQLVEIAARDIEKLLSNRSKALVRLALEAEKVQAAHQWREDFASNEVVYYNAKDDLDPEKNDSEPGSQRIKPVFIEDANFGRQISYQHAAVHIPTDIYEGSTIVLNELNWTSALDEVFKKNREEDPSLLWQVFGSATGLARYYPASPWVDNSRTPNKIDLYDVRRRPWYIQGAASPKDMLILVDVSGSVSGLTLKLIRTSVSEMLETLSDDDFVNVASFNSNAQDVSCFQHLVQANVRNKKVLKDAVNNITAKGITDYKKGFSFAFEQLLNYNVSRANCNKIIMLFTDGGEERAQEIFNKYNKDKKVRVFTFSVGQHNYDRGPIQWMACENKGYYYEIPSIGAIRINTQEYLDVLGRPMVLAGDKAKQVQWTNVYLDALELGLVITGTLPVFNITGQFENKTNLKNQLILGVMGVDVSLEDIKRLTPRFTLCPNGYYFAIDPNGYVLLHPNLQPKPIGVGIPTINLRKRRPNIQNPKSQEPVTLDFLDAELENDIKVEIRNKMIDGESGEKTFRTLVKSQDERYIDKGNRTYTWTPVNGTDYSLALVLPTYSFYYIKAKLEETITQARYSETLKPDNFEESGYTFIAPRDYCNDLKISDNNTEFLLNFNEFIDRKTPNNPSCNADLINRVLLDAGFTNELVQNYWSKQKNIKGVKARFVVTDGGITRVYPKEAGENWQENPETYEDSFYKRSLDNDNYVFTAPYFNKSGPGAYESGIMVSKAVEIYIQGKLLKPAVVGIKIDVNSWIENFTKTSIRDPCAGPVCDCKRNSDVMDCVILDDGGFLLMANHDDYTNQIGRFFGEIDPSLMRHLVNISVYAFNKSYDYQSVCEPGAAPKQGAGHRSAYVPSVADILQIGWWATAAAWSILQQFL
human Cav2.2, sequence (P54289 947-1103 partner limits assumed): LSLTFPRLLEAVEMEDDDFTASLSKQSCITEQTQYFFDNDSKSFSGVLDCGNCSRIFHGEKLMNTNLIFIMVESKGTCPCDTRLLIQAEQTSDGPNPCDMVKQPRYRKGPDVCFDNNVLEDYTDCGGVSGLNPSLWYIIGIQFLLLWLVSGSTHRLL
human Cav2.2, sequence (P54284 whole entry partner): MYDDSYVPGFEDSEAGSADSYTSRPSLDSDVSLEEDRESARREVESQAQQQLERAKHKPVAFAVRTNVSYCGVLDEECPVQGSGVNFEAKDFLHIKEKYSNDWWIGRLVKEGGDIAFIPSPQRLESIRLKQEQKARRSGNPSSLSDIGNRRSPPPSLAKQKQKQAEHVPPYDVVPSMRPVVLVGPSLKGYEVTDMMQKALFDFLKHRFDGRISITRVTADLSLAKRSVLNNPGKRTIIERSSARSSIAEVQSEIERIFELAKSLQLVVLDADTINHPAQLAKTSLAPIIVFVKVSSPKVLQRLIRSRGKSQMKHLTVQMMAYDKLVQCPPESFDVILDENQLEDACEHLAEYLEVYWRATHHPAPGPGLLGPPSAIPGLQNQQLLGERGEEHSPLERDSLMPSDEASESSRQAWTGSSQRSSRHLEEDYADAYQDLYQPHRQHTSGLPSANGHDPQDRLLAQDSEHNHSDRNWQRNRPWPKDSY

| SMILES | IC50 |
| --- | --- |
| CCC[C@H](N)C(=O)N[C@H]1CC[C@@H]2CN(S(=O)(=O)c3cccc(C(F)(F)F)c3)C[C@@H]21 [Example 424, N^1-((3aR,4S,6aS)-2-{[3-(trifluoromethyl)phenyl]sulfonyl}octahydrocyclopenta[c]pyrrol-4-yl)-L-norvalinamide] | 3110 nM |
| CCC[C@H](N)C(=O)N[C@@H]1CC[C@H]2CN(S(=O)(=O)c3cccc(C(F)(F)F)c3)C[C@H]21 [Example 425, N^1-((3aS,4R,6aR)-2-{[3-(trifluoromethyl)phenyl]sulfonyl}octahydrocyclopenta[c]pyrrol-4-yl)-L-norvalinamide] | 3210 nM |
| CC(C)(C)C[C@H](N)C(=O)N[C@H]1CC[C@@H]2CN(S(=O)(=O)c3cc(C(F)(F)F)ccc3Cl)C[C@@H]21 [Example 428, N^1-((3aR,4S,6aS)-2-{[2-chloro-5-(trifluoromethyl)phenyl]sulfonyl}octahydrocyclopenta[c]pyrrol-4-yl)-4-methyl-L-leucinamide] | 2310 nM |
| CC(C)(C)C[C@H](N)C(=O)N[C@H]1CC[C@@H]2CN(S(=O)(=O)c3ccc(C(F)(F)F)cc3Cl)C[C@@H]21 [Example 429, N^1-((3aR,4S,6aS)-2-{[2-chloro-4-(trifluoromethyl)phenyl]sulfonyl}octahydrocyclopenta[c]pyrrol-4-yl)-4-methyl-L-leucinamide] | 960 nM |
| CN[C@@H](CC(C)(C)C)C(=O)N[C@H]1CC[C@@H]2CN(S(=O)(=O)c3ccc(C(F)(F)F)cc3Cl)C[C@@H]21 [Example 431, N^1-((3aR,4S,6aS)-2-{[2-chloro-4-(trifluoromethyl)phenyl]sulfonyl}octahydrocyclopenta[c]pyrrol-4-yl)-N^2,4-dimethyl-L-leucinamide] | 580 nM |
| CC(C)(C)C[C@H](N)C(=O)N[C@H]1CC[C@@H]2CN(c3ccc(C(F)(F)F)cn3)C[C@@H]21 [Example 440, 4-methyl-N^1-{(3aR,4S,6aS)-2-[5-(trifluoromethyl)pyridin-2-yl]octahydrocyclopenta[c]pyrrol-4-yl}-L-leucinamide] | 3190 nM |
| CC(C)(C)C[C@H](N)C(=O)N[C@H]1CC[C@@H]2CN(c3cccc(C(F)(F)F)n3)C[C@@H]21 [Example 441, 4-methyl-N^1-{(3aR,4S,6aS)-2-[6-(trifluoromethyl)pyridin-2-yl]octahydrocyclopenta[c]pyrrol-4-yl}-L-leucinamide] | 370 nM |
| CN[C@@H](CC(C)C)C(=O)N[C@@H]1CC[C@H]2CN(S(=O)(=O)c3cccc(F)c3)C[C@H]21 [Example 443, N^1-{(3aS,4R,6aR)-2-[(3-fluorophenyl)sulfonyl]octahydrocyclopenta[c]pyrrol-4-yl}-N^2-methyl-L-leucinamide] | 7680 nM |
| CN[C@@H](CC(C)C)C(=O)N[C@@H]1CC[C@H]2CN(S(=O)(=O)c3ccc(F)cc3)C[C@H]21 [Example 444, N^1-{(3aS,4R,6aR)-2-[(4-fluorophenyl)sulfonyl]octahydrocyclopenta[c]pyrrol-4-yl}-N^2-methyl-L-leucinamide] | 2110 nM |
| CN[C@@H](CC(C)C)C(=O)N[C@@H]1CC[C@H]2CN(S(=O)(=O)c3ccc(F)c(F)c3)C[C@H]21 [Example 445, N^1-{(3aS,4R,6aR)-2-[(3,4-difluorophenyl)sulfonyl]octahydrocyclopenta[c]pyrrol-4-yl}-N^2-methyl-L-leucinamide] | 7960 nM |
| CN[C@@H](CC(C)C)C(=O)N[C@@H]1CC[C@H]2CN(S(=O)(=O)c3cc(F)cc(F)c3)C[C@H]21 [Example 446, N^1-{(3aS,4R,6aR)-2-[(3,5-difluorophenyl)sulfonyl]octahydrocyclopenta[c]pyrrol-4-yl}-N^2-methyl-L-leucinamide] | 4960 nM |
| CN[C@@H](CC(C)C)C(=O)N[C@@H]1CC[C@H]2CN(S(=O)(=O)c3ccc(Cl)cc3)C[C@H]21 [Example 447, N^1-{(3aS,4R,6aR)-2-[(4-chlorophenyl)sulfonyl]octahydrocyclopenta[c]pyrrol-4-yl}-N^2-methyl-L-leucinamide] | 2710 nM |
| CN[C@@H](CC(C)C)C(=O)N[C@@H]1CC[C@H]2CN(Cc3ccc(C(F)(F)F)cc3)C[C@H]21 [Example 449, N^2-methyl-N^1-{(3aS,4R,6aR)-2-[4-(trifluoromethyl)benzyl]octahydrocyclopenta[c]pyrrol-4-yl}-L-leucinamide] | 4060 nM |
| CN[C@H](C(=O)N[C@H]1CC[C@@H]2CN(S(=O)(=O)c3ccc(C(F)(F)F)cc3)C[C@@H]21)C(C)C [Example 451, N^2-methyl-N^1-((3aR,4S,6aS)-2-{[4-(trifluoromethyl)phenyl]sulfonyl}octahydrocyclopenta[c]pyrrol-4-yl)-L-valinamide] | 800 nM |
| CN[C@H](C(=O)N[C@H]1CC[C@@H]2CN(S(=O)(=O)c3ccc(F)cc3)C[C@@H]21)C(C)C [Example 452, N^1-{(3aR,4S,6aS)-2-[(4-fluorophenyl)sulfonyl]octahydrocyclopenta[c]pyrrol-4-yl}-N^2-methyl-L-valinamide] | 9120 nM |
| CC(C)(C)C[C@H](N)C(=O)N[C@H]1CC[C@@H]2CN(S(=O)(=O)c3ccc(F)cc3)C[C@@H]21 [Example 453, N^1-{(3aR,4S,6aS)-2-[(4-fluorophenyl)sulfonyl]octahydrocyclopenta[c]pyrrol-4-yl}-4-methyl-L-leucinamide] | 4230 nM |
| CCCC[C@H](NC)C(=O)N[C@H]1CC[C@@H]2CN(S(=O)(=O)c3ccc(F)cc3)C[C@@H]21 [Example 454, N^1-{(3aR,4S,6aS)-2-[(4-fluorophenyl)sulfonyl]octahydrocyclopenta[c]pyrrol-4-yl}-N^2-methyl-L-norleucinamide] | 2030 nM |
| CN[C@@H](CC(C)C)C(=O)N[C@H]1CC[C@@H]2CN(S(=O)(=O)c3ccc(F)cc3)C[C@@H]21 [Example 455, N^1-{(3aR,4S,6aS)-2-[(4-fluorophenyl)sulfonyl]octahydrocyclopenta[c]pyrrol-4-yl}-N^2-methyl-L-leucinamide] | 3030 nM |
| CCC[C@H](NC)C(=O)N[C@H]1CC[C@@H]2CN(CCC(c3ccc(F)cc3)c3ccc(F)cc3)C[C@@H]21 [Example 458, N^1-{(3aR,4S,6aS)-2-[3,3-bis(4-fluorophenyl)propyl]octahydrocyclopenta[c]pyrrol-4-yl}-N^2-methyl-L-norvalinamide] | 3080 nM |

The remaining lines, values ahead:

| IC50 | SMILES |
| --- | --- |
| 800 nM | CC(C)(C)C[C@H](N)C(=O)N[C@H]1CC[C@@H]2CN(S(=O)(=O)c3ccc(C(F)(F)F)cc3)C[C@@H]21 [Example 419, 4-methyl-N^1-((3aR,4S,6aS)-2-{[4-(trifluoromethyl)phenyl]sulfonyl}octahydrocyclopenta[c]pyrrol-4-yl)-L-leucinamide] |
| 5700 nM | CCC[C@H](NC)C(=O)N[C@@H]1CC[C@@H]2CN(S(=O)(=O)c3ccc(C(F)(F)F)cc3)C[C@@H]21 [Example 420, N^2-methyl-N^1-((3aR,4R,6aS)-2-{[4-(trifluoromethyl)phenyl]sulfonyl}octahydrocyclopenta[c]pyrrol-4-yl)-L-norvalinamide] |
| 2560 nM | CN[C@@H](CC(C)C)C(=O)N[C@@H]1CC[C@@H]2CN(S(=O)(=O)c3ccc(C(F)(F)F)cc3)C[C@@H]21 [Example 421, N^2-methyl-N^1-((3aR,4R,6aS)-2-{[4-(trifluoromethyl)phenyl]sulfonyl}octahydrocyclopenta[c]pyrrol-4-yl)-L-leucinamide] |
| 6450 nM | CN[C@@H](CC1CCCCC1)C(=O)N[C@H]1CC[C@@H]2CN(S(=O)(=O)c3ccc(C(F)(F)F)cc3)C[C@@H]21 [Example 427, 3-cyclohexyl-N^2-methyl-N^1-((3aR,4S,6aS)-2-{[4-(trifluoromethyl)phenyl]sulfonyl}octahydrocyclopenta[c]pyrrol-4-yl)-L-alaninamide] |
| 1260 nM | CN[C@@H](CC(C)(C)C)C(=O)N(C1CC1)[C@H]1CC[C@@H]2CN(S(=O)(=O)c3ccc(C(F)(F)F)cc3)C[C@@H]21 [Example 433, N^1-cyclopropyl-N^2,4-dimethyl-N^1-((3aR,4S,6aS)-2-{[4-(trifluoromethyl)phenyl]sulfonyl}octahydrocyclopenta[c]pyrrol-4-yl)-L-leucinamide] |
| 2700 nM | CCN(C(=O)[C@H](CC(C)(C)C)NC)[C@H]1CC[C@@H]2CN(S(=O)(=O)c3ccc(C(F)(F)F)cc3)C[C@@H]21 [Example 434, N^1-ethyl-N^2,4-dimethyl-N^1-((3aR,4S,6aS)-2-{[4-(trifluoromethyl)phenyl]sulfonyl}octahydrocyclopenta[c]pyrrol-4-yl)-L-leucinamide] |
| 2320 nM | CCCN(C(=O)[C@H](CC(C)(C)C)NC)[C@H]1CC[C@@H]2CN(S(=O)(=O)c3ccc(C(F)(F)F)cc3)C[C@@H]21 [Example 435, N^2,4-dimethyl-N^1-propyl-N^1-((3aR,4S,6aS)-2-{[4-(trifluoromethyl)phenyl]sulfonyl}octahydrocyclopenta[c]pyrrol-4-yl)-L-leucinamide] |
| 1770 nM | CN[C@@H](CC(C)(C)C)C(=O)N(CC1CC1)[C@H]1CC[C@@H]2CN(S(=O)(=O)c3ccc(C(F)(F)F)cc3)C[C@@H]21 [Example 436, N^1-(cyclopropylmethyl)-N^2,4-dimethyl-N^1-((3aR,4S,6aS)-2-{[4-(trifluoromethyl)phenyl]sulfonyl}octahydrocyclopenta[c]pyrrol-4-yl)-L-leucinamide] |
| 2430 nM | CN[C@@H](CC(C)(C)C)C(=O)N(C)[C@H]1CC[C@@H]2CN(S(=O)(=O)c3ccc(C(F)(F)F)cc3)C[C@@H]21 [Example 437, N^1,N^2,4-trimethyl-N^1-((3aR,4S,6aS)-2-{[4-(trifluoromethyl)phenyl]sulfonyl}octahydrocyclopenta[c]pyrrol-4-yl)-L-leucinamide] |
| 5330 nM | CCC[C@H](NC)C(=O)N[C@H]1CC[C@H]2CN(S(=O)(=O)c3ccc(C(F)(F)F)cc3)C[C@H]21 [Example 456, N^2-methyl-N^1-((3aS,4S,6aR)-2-{[4-(trifluoromethyl)phenyl]sulfonyl}octahydrocyclopenta[c]pyrrol-4-yl)-L-norvalinamide] |
| 3070 nM | CN[C@@H](CC(C)C)C(=O)N[C@H]1CC[C@H]2CN(S(=O)(=O)c3ccc(C(F)(F)F)cc3)C[C@H]21 [Example 457, N^2-methyl-N^1-((3aS,4S,6aR)-2-{[4-(trifluoromethyl)phenyl]sulfonyl}octahydrocyclopenta[c]pyrrol-4-yl)-L-leucinamide] |
